Test results: US8168645B2, “Arylsulfonamide compounds” (Genentech, Inc., priority 2006, dated 2012)

What was measured:
[1] = test system: mouse embryo fibroblasts (MEFs): wild type, Bax/Bak double knockout, Noxa-expressing, Bad-expressing; assay: Cell viability assay on mouse embryo fibroblasts (propidium iodide uptake); type: cell-based; settings: propidium iodide uptake after 24 hours
Procedure: FIG. 1 graphically depicts the effect of Compound 1 (FIG. 1A) and Etoposide (FIG. 1B), at increasing concentrations, on the % viability of certain mouse embryo fibroblast (MEF) cells as assessed by propidium iodide uptake after 24 hours. Noxa and Bad were introduced by retrovirally infecting the cells with pMIG retroviruses as described by Chen et al., 2005.
The efficacy of the compounds of the present invention can also be determined in cell based killing assays using a variety of cell lines and mouse tumor models. For example, their activity on cell viability can be assessed on a panel of cultured tumorigenic and non-tumorigenic cell lines, as well as primary mouse or human cell populations, e.g. lymphocytes. For these assays, 5,000-20,000 cells are cultured at 37° C. and 10% CO2 in appropriate growth media, eg: 100 μL Dulbecco's Modified Eagle's medium supplemented with 10% foetal calf serum, asparaginase and 2-mercaptoethanol in the case of pre-B Eμ-Myc mouse tumors in 96 well plates. […] Cell viability is determined by the ability of the cells to exclude propidium iodide (10 μg/mL by immunofluorescence analysis of emission wavelengths of 660-675 nm on a flow cytometer (BD FACScan). Alternatively, a high throughput calorimetric assay such as the Cell Titre 96 could be used. Aqueous Non-Radioactive Cell Proliferation Assay (Promega) may be used. Cell death by apoptosis is confirmed by pre-incubation of the cells with 50 μM of a caspase inhibitor such as zVAD-fmk.
Neutralisation of both Bcl-xL and Mcl-1 anti-apoptotic proteins in normal cells is required before a cell undergoes apoptosis via the downstream Bax/Bak pathway [Chen et al., 2005; Willis et al., 2005]. A compound that only targets Bcl-xL should not affect normal cells, but could kill certain cancer cells if they rely more on Bcl-xL and less on Mcl-1 for survival. To mirror this, compound 1 was tested for its effect on survival of wild type (wt) mouse embryo fibroblasts (MEFs), Bax/Bak double knockout (BB DKO) MEFs, MEFs that expressed Noxa, and MEFs that expressed Bad. Noxa specifically neutralizes Mcl-1.

[2] = molecular target: GST tagged BCl-xL ΔC25 protein (Homo sapiens, UniProt Q07817); assay: Alphascreen competition binding assay, GST tagged Bcl-xL vs biotinylated Bim BH3-26 peptide; settings: competition with Bim BH3-26 peptide; unit inferred
Description: (§1) Measurement of competition of compounds of the invention with Bim26-mer for a Bcl-2 homologue binding site.
(§2) Alphascreen (Amplified Luminescent Proximity Homogenous Assay) is a bead based technology which measures the interaction between molecules. The assay consists of two hydrogel coated beads which, when bought into close proximity by a binding interaction, allow the transfer of singlet oxygen from a donor bead to an acceptor bead.
(§3) Upon binding and excitation with laser light at 680 nm, a photosensitizer in the donor bead converts ambient oxygen to a more excited singlet state. This singlet oxygen then diffuses across to react with a chemiluminescer in the acceptor bead. Fluorophores within the same bead are activated resulting in the emission of light at 580-620 nm.
(§4) Screening of the compounds of the invention was performed using the Alphascreen GST (glutathione s-transferase) detection kit system. Test compounds were titrated into the assay which consisted of GST tagged Bclw ΔC29 protein (0.05 nM Final concentration) and Biotinylated Bim BH3-26 peptide, Biotin-[…] (3.0 nM Final concentration). For the GST tagged BCl-xL assay, GST tagged BCl-xL ΔC25 protein (0.6 nM Final concentration) and Biotinylated Bim BH3-26 peptide, Biotin-[…] (5.0 nM final concentration) were used. To this reaction mix anti-GST coated acceptor beads and Streptavidin coated donor beads, both at 15 μg/ml Final concentration, were added and the assay mixture incubated for 4 hours at room temperature before reading. Similarly when the Bcl-2 protein was Mcl-1, GST tagged Mcl-1 protein (0.4 nM Final concentration) and Biotinylated Bak BH3 peptide, Biotin-[…]-OH (4.0 nM Final concentration) were used.
(§5) • 1) prepare a 384 well with 4.75 μL of buffer and 0.25 μL of compounds (20 mM in DMSO) per well. • 2) Mix the binding partners, in one tube add Bcl-w, BCl-xL or Mcl-1 and the acceptor beads, in the second tube add Biotinylated BH3 peptide and the donor beads. • 3) Pre-incubate the two pairs of binding partners for 30 minutes. • 4) Add 1 μL of acceptor beads:Bcl-w, BCl-xL or Mcl-1 protein mix to each well. • 5) Seal the plate and incubate at room temperature for 30 minutes. • 6) Add 10 μL of donor bead:BH3 peptide mix to each well. • 7) Seal the plate, cover with foil and incubate for 4 hours.
(§6) Assay buffer contained 50 mM Hepes pH 7.4, 10 mM DTT, 100 mM NaCl, 0.05% Tween and 0.1 mg/ml casein. Bead dilution buffer contained 50 mM Tris, pH 7.5, 0.01% Tween and 0.1 mg/ml casein. The final DMSO concentration in the assay was 0.5%. Assays were performed in 384 well white Optiplates and analyzed on the PerkinElmer Fusion alpha plate reader (Ex680, Em520-620 nM).
(§7) The GST Alphascreen detection kit and Optiplates were purchased from PerkinElmer.

GST tagged Mcl-1 protein = GST tagged Mcl-1 protein (Homo sapiens, UniProt Q07820); assay: Alphascreen competition binding assay, GST tagged Mcl-1 vs biotinylated Bak BH3 peptide; settings: competition with Bak BH3 peptide; unit inferred
Description: as §1, §2, §3, §4, §5, §6, §7

SCLC cell line NCI-H146 = assay: CellTitre-Glow luminescent cytotoxicity assay, NCI-H146; type: cell-based; settings: Homo sapiens; NCI-H146 cells, 48 hr incubation
Procedure: (§8) • 1. SCLC cell lines NCI-H889, NCI-H1963, and NCI-H146 were purchased from American Type Culture Collection. Cells were maintained in RPMI 1640 (Invitrogen Corp., Grand Island, N.Y.) supplemented with 10% fetal bovine serum (FBS, Invitrogen), 1% sodium pyruvate, 25 mM HEPES, 4.5 g/L glucose and 1% penicillin/streptomycin (Sigma) in a humidified chamber at 37° C. containing 5% CO2. • 2. cells were grown as suspension aggregates in a T162 flask with 25 ml medium and kept at concentration of 1 million/mL. Test Compound Stocks: • 1. test compounds were prepared as 10 mM stocks in DMSO and stored at −20° C. Test Compound Serial Dilutions: • 1. prewarmed medium to 37° C. • 2. thawed compounds to room temperature. • 3. determined what will be the highest concentration to be tested. (i.e. 10 μM). • 4. prepared a 2× stock in culture medium of the first dose (i.e. 2×10 μM=20 μM) in an Eppendorf tube (i.e. 4 μl of 5 mM stock into 1000 μl=20 μM). • 5. inverted tube several times to mix. […] Columns 1-10 comprised the serial test compound treatments, column 11 was the untreated control and column 12 was the ‘no cell’ control for determining the background. • 1. in a 96 well plate was added 50 μl medium/well in columns 2 thru 11 and 100 μl was added to column 12. • 2. in column 1 was added 100 μl of 2× compound. • 3. made serial dilutions by transferring 50 μl to column 2, and so on up to column 10. After adding 50 μl to column 10 and mixing, discarded 50 μl. • 4. stored plates at 37° C. until ready to add cells. Cell Preparation • 1. Cell were washed one time in the culture medium and prepared as a suspension. • a. cell were first spun down to remove the medium and then ˜1 ml 0.25% trypsin was added and gently mixed and incubated for no more than three minutes at room temperature. • b. ˜10 ml of the medium was added and the cells were gently pipetted several times. • c. cells were then counted and spun down to the volume necessary for the total cell number needed, then resuspended in the medium to 200 cells/μl concentration (50,000 cells/well). • 2. […]

SCLC cell line NCI-H889 = assay: CellTitre-Glow luminescent cytotoxicity assay, NCI-H889; type: cell-based; settings: Homo sapiens; NCI-H889 cells, 48 hr incubation
Procedure: as §8

SCLC cell line NCI-H1963 = assay: CellTitre-Glow luminescent cytotoxicity assay, NCI-H1963; type: cell-based; settings: Homo sapiens; NCI-H1963 cells, 48 hr incubation
Procedure: as §8

Chain of GST tagged Mcl-1 protein (Q07820 whole entry): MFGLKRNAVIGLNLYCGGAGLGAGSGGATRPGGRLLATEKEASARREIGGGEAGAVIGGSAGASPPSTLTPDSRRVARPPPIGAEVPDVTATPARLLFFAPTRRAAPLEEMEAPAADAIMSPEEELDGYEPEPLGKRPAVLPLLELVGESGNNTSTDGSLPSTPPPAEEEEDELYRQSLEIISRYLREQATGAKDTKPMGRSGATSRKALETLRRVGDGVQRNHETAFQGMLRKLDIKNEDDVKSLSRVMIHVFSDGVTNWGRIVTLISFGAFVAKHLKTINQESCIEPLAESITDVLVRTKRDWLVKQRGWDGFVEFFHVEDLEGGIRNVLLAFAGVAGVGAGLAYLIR
Chain of GST tagged BCl-xL ΔC25 protein (Q07817 1-208 limits assumed): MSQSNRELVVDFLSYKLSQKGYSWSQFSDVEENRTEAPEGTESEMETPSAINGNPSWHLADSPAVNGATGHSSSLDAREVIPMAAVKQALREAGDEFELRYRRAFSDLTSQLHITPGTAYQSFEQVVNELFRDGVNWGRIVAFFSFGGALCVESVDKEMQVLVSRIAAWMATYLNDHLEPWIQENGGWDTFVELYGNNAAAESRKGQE

Structure (SMILES) | Selectivity of killing of Noxa-expressing MEFs versus MEFs where both Bcl-xL and Mcl-1 are protective (% viability) ([1]; FIG. 1A/1B) | Effect on Bax/Bak double knockout (BB DKO) MEFs ([1]; FIG. 1B) | IC50 [2] [nM] | IC50 (GST tagged Mcl-1 protein) [nM] | EC50 (SCLC cell line NCI-H146) [µM] | EC50 (SCLC cell line NCI-H889) [µM] | EC50 (SCLC cell line NCI-H1963) [µM]
COc1cc([C@@H]2c3cc4c(cc3[C@@H](O[C@@H]3O[C@@H]5CO[C@@H](C)O[C@H]5[C@H](O)[C@H]3O)[C@H]3COC(=O)[C@H]23)OCO4)cc(OC)c1O [etoposide] | less selectively than compound 1 | resistance of BB DKO MEFs |  |  |  |  | 
CC1(C)CCC(c2ccc(Cl)cc2)=C(CN2CCN(c3ccc4c(NS(=O)(=O)c5ccc(N[C@H](CCN6CCOCC6)CSc6ccccc6)c(S(=O)(=O)C(F)(F)F)c5)ncnc4c3)CC2)C1 [Compound 8, N-(7-{4-[2-(4-Chloro-phenyl)-5,5-dimethyl-cyclohex-1-enylmethyl]-piperazin-1-yl}-quinazolin-4-yl)-4-((R)-3-morpholin-4-yl-1-phenylsulfanylmethylpropylamino)-3-trifluoromethanesulfonyl benzenesulfonamide] |  |  | 29 | 10000 |  |  | 
O=[N+]([O-])c1cc(S(=O)(=O)Nc2ncnc3cc(N4CCN(Cc5ccccc5-c5ccc(Cl)cc5)CC4)ccc23)ccc1N[C@H](CCN1CCOCC1)CSc1ccccc1 [Compound 3, N-{7-[4-(4′-Chloro-biphenyl-2-ylmethyl)-piperazin-1-yl]-quinazolin-4-yl}-4-((R)-3-morpholin-4-yl-1-phenylsulfanylmethyl-propylamino)-3-nitro-benzenesulfonamide] |  |  | 34 | 6000 | 3.7 | 1.3 | 1.4
CN(C)CC[C@H](CSc1ccccc1)Nc1ccc(S(=O)(=O)Nc2ncnc3cc(N4CCN(Cc5ccccc5-c5ccc(Cl)cc5)CC4)ccc23)cc1S(=O)(=O)C(F)(F)F [Compound 2, N-{7-[4-(4′-Chloro-biphenyl-2-ylmethyl)-piperazin-1-yl]-quinazolin-4-yl}-4-((R)-3-dimethylamino-1-phenylsulfanylmethyl-propylamino)-3-trifluoromethanesulfonyl-benzenesulfonamide] |  |  | 6 | 50000 |  |  | 
CN(C)CC[C@H](CSc1ccccc1)Nc1ccc(S(=O)(=O)Nc2ncnc3cc(N4CCN(CC5=C(c6ccc(Cl)cc6)CCC(C)(C)C5)CC4)ccc23)cc1[N+](=O)[O-] [Compound 5, N-(7-{4-[2-(4-Chloro-phenyl)-5,5-dimethyl-cyclohex-1-enylmethyl]-piperazin-1-yl}-quinazolin-4-yl)-4-((R)-3-dimethylamino-1-phenylsulfanylmethyl-propylamino)-3-nitro-benzenesulfonamide] |  |  | 3 | 7000 |  |  | 
CN(C)CC[C@H](CSc1ccccc1)Nc1ccc(S(=O)(=O)Nc2ncnc3cc(N4CCN(CC5=C(c6ccc(Cl)cc6)CCC(C)(C)C5)CC4)ccc23)cc1S(=O)(=O)C(F)(F)F [Compound 6, N-(7-{4-[2-(4-Chloro-phenyl)-5,5-dimethyl-cyclohex-1-enylmethyl]-piperazin-1-yl}-quinazolin-4-yl)-4-((R)-3-dimethylamino-1-phenylsulfanylmethyl-propylamino)-3-trifluoromethanesulfonyl-benzenesulfonamide] |  |  | 3 | 20000 |  |  | 
CC1(C)CCC(c2ccc(Cl)cc2)=C(CN2CCN(c3ccc4c(NS(=O)(=O)c5ccc(N[C@H](CCN6CCOCC6)CSc6ccccc6)c([N+](=O)[O-])c5)ncnc4c3)CC2)C1 [Compound 7, N-(7-{4-[2-(4-Chloro-phenyl)-5,5-dimethyl-cyclohex-1-enylmethyl]-piperazin-1-yl}-quinazolin-4-yl)-4-((R)-3-morpholin-4-yl-1-phenylsulfanylmethyl-propylamino)-3-nitro-benzenesulfonamide] |  |  | 20 | 10000 |  |  | 
O=S(=O)(Nc1ncnc2cc(N3CCN(Cc4ccccc4-c4ccc(Cl)cc4)CC3)ccc12)c1ccc(N[C@H](CCN2CCOCC2)CSc2ccccc2)c(S(=O)(=O)C(F)(F)F)c1 [Compound 4, N-{7-[4-(4′-Chloro-biphenyl-2-ylmethyl)-piperazin-1-yl]-quinazolin-4-yl}-4-((R)-3-morpholin-4-yl-1-phenylsulfanylmethyl-propylamino)-3-trifluoromethanesulfonyl-benzenesulfonamide] |  |  | 16 |  | 0.63 | 0.82 | 0.4
